From article PMC11611271, “Rapid prediction of key residues for foldability by machine learning model enables the design of highly functional libraries with hyperstable constrained peptide scaffolds” (PLOS Computational Biology, 2024) come the findings set out here.

Where a SMILES comes first, the peptide text is derived from it. Bridges are numbered along the chain shown (N, C = ends).

One assay has as its system RSP02. Description: phage spot ELISA on RSP02. The assay is classed as binding. To be noted: for S/N: phage spot ELISA signal/noise; for S/N / ELISA: S3 Table sheet RSP02; for ELISA: phage spot ELISA signal. From the text:
(§1) To determine the performance of the libraries for ligand discovery we chose a panel of eight protein targets, which have no structural homology and a wide mass range (Fig 7C). We screened these eight targets with solution panning strategy and two additional plate panning for CD8α/β and CD28, thus ten panning campaigns in total. We consider clones showing spot phage ELISA signal > 0.3 and signal/noise ratio > 2 as positive hits. At least one binding hit was discovered for nine out of the ten panning campaigns, surpassing the success rate of the best DCP scaffolds reported previously. We also obtained the NGS data for these screening and the ranking of clones for their enrichment along the rounds of screening was analyzed and considered the top-ranking clones as potential hits. Based on their sequence diversity we selected 16 potential hits spanning five protein targets for peptide synthesis in their linear form. Seven of these are hits with positive phage ELISA signal and nine were selected based on NGS ranking without spot ELISA available. Subsequently, we conducted in vitro folding experiments on these peptides in various buffers. We observed a strong propensity for spontaneous folding regardless of the buffer condition. All HCP hits tested successfully folded into three-disulfide-containing product within two days in a universal buffer system (PBS, pH 7.4, 50% DMSO) without the need for a redox pair, as shown in Fig 8A. The binding of these folded peptides to their respective target proteins was confirmed using SPR (Table 4 and S1 Data) and binding kinetics are exemplified by the high-affinity peptide 5ji4-CRD7-2 (see Fig 8B). Among seven selected ELISA-positive hits, all of them were successfully synthesized and in vitro folded with three disulfide bonds and five were proven to be validated binders by SPR (Table 4). Nine peptides selected from the NGS ranking were synthesized and folded with the expected number of disulfide bonds and five of them bound to their target with affinities in the μM range as determined by SPR (Table 4). In general, binding affinities for these SPR-validated initial hits are weak, with Kd values in the micromolar range and fast on- and off-rates. There are two exceptions with binding affinities in the nanomolar range.
(§2) The 5ji4 libraries were constructed following the Kunkel mutagenesis method and the solution panning protocol was followed as previously described. After four to five rounds of binding selection, while eluted pool was subjected to NGS analysis, individual phage clones were also picked and analyzed with phage spot ELISA. Positive clones were subjected to SANGER sequencing.
For orientation: An ELISA detects its analyte on a solid surface through an enzyme-linked reagent.

For a further assay, the system named is CD8α/β. In words: phage spot ELISA on CD8α/β. The assay is classed as binding. The following applies: for S/N: phage spot ELISA signal/noise; for ELISA: phage spot ELISA signal.
Excerpt: as §1, §2

The next assay relates to CD8α. In words: phage spot ELISA on CD8α. It is filed as binding. The following applies: S3 Table sheet CD8α.
Excerpt: as §1, §2

Assay [1] deals with VEGF_(8-109) (UniProt P15692). In words: ELISA; phage spot ELISA of individual phage clones after panning; clones with signal > 0.3 and signal/noise ratio > 2 counted as positive hits.
Assay [2] concerns the target VEGF_(8-109) (UniProt P15692). Description: SPR; Biacore S200, target on Series S Sensor Chip SA, peptide flowed, single-cycle kinetics, three-fold dilution series from approximately 100 μM, 25°C, 30 μl/min, HBS-EP with 5% DMSO; 1:1 binding (kinetic) model. Background: Surface plasmon resonance follows binding to a sensor surface in real time, without labels.
In assay [3] the target is T1, CD8α-Fc (UniProt P01732 22-182).
T1 construct: CD8 alpha chain, bought as Fc fusion; captured on a Protein A sensor chip by its Fc; source: bought: R&D, #AVI10927
T1 sequence (P01732 22-182): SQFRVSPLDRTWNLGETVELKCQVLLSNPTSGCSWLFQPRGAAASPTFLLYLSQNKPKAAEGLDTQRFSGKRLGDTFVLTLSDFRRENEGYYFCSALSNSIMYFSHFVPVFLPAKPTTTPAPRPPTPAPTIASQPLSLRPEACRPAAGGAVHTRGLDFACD
In words: SPR; Biacore S200, Fc-fusion target on Sensor Chip Protein A, peptide flowed, single-cycle kinetics, three-fold dilution series from approximately 100 μM, 25°C, 30 μl/min, HBS-EP with 5% DMSO; steady-state equilibrium model. To be noted: both partners purified.

The target in assay [4] is T1, CD8α-Fc. Description: SPR; Biacore S200, Fc-fusion target on Sensor Chip Protein A, peptide flowed, single-cycle kinetics, three-fold dilution series from approximately 100 μM, 25°C, 30 μl/min, HBS-EP with 5% DMSO; 1:1 binding (kinetic) model, or no binding seen. To be noted: both partners purified.
[5] abbreviates: S3 Table sheet CD8αβ-1 (panning campaign 1).
Where [6] appears, read: S3 Table sheet CD8αβ-2 (panning campaign 2).

In turn, `CSCC[C@@H]1NC(=O)[C@H](Cc2c[nH]c3ccccc23)NC(=O)[C@@H]2CSSC[C@H](NC(=O)[C@H](Cc3ccccc3)NC(=O)[C@H](Cc3c[nH]cn3)NC(=O)[C@H](CCC(=O)O)NC(=O)[C@H](CC(N)=O)NC(=O)[C@H](Cc3ccc(O)cc3)NC1=O)C(=O)N[C@@H](CCCNC(=N)N)C(=O)N[C@@H](C(C)C)C(=O)N[C@@H](Cc1c[nH]cn1)C(=O)N[C@H](C(=O)NCC(N)=O)CSSC[C@H](NC(=O)[C@@H]1CCCN1C(C)=O)C(=O)N[C@@H](CCC(=O)O)C(=O)N[C@H]1CSSC[C@H](NC(=O)[C@H](CCC(=O)O)NC(=O)[C@H](CCC(=O)O)NC(=O)[C@H](CO)NC(=O)[C@H](CO)NC(=O)[C@H](CO)NC(=O)[C@H](C(C)C)NC(=O)[C@H]([C@@H](C)O)NC(=O)[C@H](Cc3ccc(O)cc3)NC(=O)[C@H]([C@@H](C)O)NC(=O)[C@H](CCC(=O)O)NC(=O)CNC(=O)[C@H](CC(N)=O)NC(=O)[C@H](C(C)C)NC(=O)[C@H](CC(=O)O)NC1=O)C(=O)N[C@@H](CCC(=O)O)C(=O)N1CCC[C@H]1C(=O)N[C@@H](CC(C)C)C(=O)N2` [5ji4-RSP-1] (Ac-PCECDVNGETYTVSSSEECEPLCWMYNEHFCRVHCG-NH2; disulfide 2-35, 4-19, 23-31; N-terminus and C-terminus assumed) showed an ELISA signal with RSP02 (phage spot ELISA of the clone, positive hit: signal > 0.3 and signal/noise > 2) of 0.58. Further, the ELISA s/n in the assay on RSP02 (phage spot ELISA signal/noise ratio) was found to be 5.22. As to “PCECDVHGETYTVSSSEEGTSVPTWLISLCRVHCG [CD8αβ-1 clone 2, phage clone, 5JI4 library, CD8αβ-1 panning]”, in the assay on CD8α/β (setting [5]), the S/N worked out at 34.8 and the ELISA is on record as 3.031. In the assay on RSP02, “PCECDVNGETYTVSSSEECEPLCWMYNEHFCRVHCG [RSP02 clone 6, phage clone, 5JI4 library, RSP02 panning]” registered a S/N of 8.917 and an ELISA of 0.856.

As for “PCECDVNGETYTVSSSEECGRLCQYWFIMLCRVHCG [CD8α clone 2, phage clone, 5JI4 library, CD8α panning]”, the S/N with CD8α (phage spot ELISA signal/noise) was determined as 38.5. This molecule gave an ELISA in the assay on CD8α (phage spot ELISA signal) of 3.391.

In the assay on CD8α/β (setting [6]), “PCECDYPVYHDDYKSSEECERLCRKLGVTNCRVHCG [CD8αβ-2 clone 1, phage clone, 5JI4 library, CD8αβ-2 panning]” returned a S/N of 27.2 and an ELISA of 3.534. As to “PCECEQPYRDDPDKSSEECERLCRKLGVTNCRVHCG [RSP02 clone 4, phage clone, 5JI4 library, RSP02 panning]”, in the assay on RSP02, the S/N stood at 1.788 and the ELISA is recorded as 0.177.

In the assay with CD8α/β (setting [6]), “PCECGPYHDDMDKTSSEECERLCRKLGVTNCRVHCG [CD8αβ-2 clone 2, phage clone, 5JI4 library, CD8αβ-2 panning]” gave a S/N of 2.4 and an ELISA of 0.296.

Take “PCECIVRWTTKQLESSEECERLCRKLGVTNCRVHCG [RSP02 clone 2, phage clone, 5JI4 library, RSP02 panning]”: in the assay on RSP02, the S/N is on record as 1.515 and the ELISA amounted to 0.2. In the assay with CD8α/β (setting [6]), “PCECLMIAVMLVRPSSEECERLCRKLGVTNCRVHCG [CD8αβ-2 clone 3, phage clone, 5JI4 library, CD8αβ-2 panning]” yielded a S/N of 1.6 and an ELISA of 0.223. On to “PCECQPMSNWFDMISSEECERLCRKLGVTNCRVHCG [RSP02 clone 3, phage clone, 5JI4 library, RSP02 panning]”, for which, in the assay with RSP02, the S/N is reported as 0.8496 and the ELISA is listed as 0.192. For the molecule “PCECTYKDDWQKGASSEECERLCRKLGVTNCRVHCG [RSP02 clone 1, phage clone, 5JI4 library, RSP02 panning]”, in the assay on RSP02, the S/N was found to be 1.427 and the ELISA is 0.204. In the assay on RSP02, “PCECVRLSTGRYVKSSEECERLCRKLGVTNCRVHCG [RSP02 clone 5, phage clone, 5JI4 library, RSP02 panning]” showed a S/N of 1.706 and an ELISA of 0.216. In the assay on CD8α/β (setting [5]), “PSECPNPPFEVRTWSSEECERLCRKLGVTNCVCG [CD8αβ-1 clone 1, phage clone, 5JI4 library, CD8αβ-1 panning]” returned a S/N of 18.5 and an ELISA of 1.938. Turning to PCECFMYDILVGLASSEECERLCRKLGVTNCRVHCG [5ji4-VEGF-2 displayed on M13 phage], in the assay with VEGF_(8-109) [1], the phage spot ELISA signal was determined as 4.71 and the phage spot ELISA signal/noise (s/n) came out at 44.5. PCECFMYDILVGLASSEECERLCRKLGVTNCRVHCG [5ji4-VEGF-2]: the Kd with VEGF_(8-109) [2] is 6.8 µM. That is a single-digit micromolar value.

B1: 5ji4-CD8-22 (peptide)
chain: PCECLVTPYKDDYKSSEECERLCVWWLSTVCRVPCG
notes: clone from the 5JI4 scaffold phage libraries, picked by NGS ranking; free N- and C-termini; three disulfide bonds; source: synthetic peptide (CSBio), folded in vitro, HPLC purified
In the assay with CD8α-Fc [3], B1 yielded a Kd of 76.3 ± 35.7 µM.

B2: 5ji4-CD8-2 (peptide)
chain: H-PCECVWESFAHLPWSSEECERLCRKLGVTNCVCG-OH
modifications: disulfide (positions not given here); also: three disulfide bonds, pairing not given here
In turn, B2 gave a Kd with CD8α-Fc [4] of 4.2 ± 4.3 µM.

B3: 5ji4-CD8-20 (peptide)
chain: PCECDVNGETYTVSSSEECERLCVWWLSTVCRVPCG
notes: as for B1
The molecule B3 returned a Kd with CD8α-Fc [3] of 23 ± 7 µM.

B4: 5ji4-CD8-21 (peptide)
chain: PCECVWESFAHLPWSSEECERLCLNWLSSLCRVHCG
notes: as for B1
Regarding B4, the dissociation constant Kd in the assay with CD8α-Fc [4] is 6 ± 2.2 µM.

In the case of PCECDVNVETYTVSSSEECKRLCWGFGQSDCRVHCG [5ji4-VEGF-3 displayed on M13 phage], in the assay with VEGF_(8-109) [1], the phage spot ELISA signal was 3.07 and the phage spot ELISA signal/noise (s/n) turned out to be 32.2. PCECDVNVETYTVSSSEECKRLCWGFGQSDCRVHCG [5ji4-VEGF-3]: the Kd in the assay with VEGF_(8-109) [2] was 0.12 µM.

The Kd is the concentration at which binding is half-saturated. The low end stands for a tighter complex, the high end for a looser complex.
